# Measurements as given in patent publication US20260262643A1, “HERBICIDAL BENZOXAZINES” (FMC CORPORATION, priority 2022, published 2026).
# Experiments:
# barnyardgrass [1] = test: Test C preemergence; type: in vivo, Echinochloa crusgalli; conditions: 0 to 100 scale (0 no effect, 100 complete control)
# How it was run: (§1)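 Test material, in non-phytotoxic solvent with surfactant, was sprayed on the soil directly after seeding (preemergence) or on young plants of 2–10 cm with one to two leaves (postemergence). Greenhouse, 10 days; 0–100 visual control scale.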
# blackgrass [2] = test: Test C preemergence; type: in vivo, Alopecurus myosuroides; conditions: 0 to 100 scale (0 no effect, 100 complete control)
# How it was run: as §1
# corn [3] = test: Test C preemergence; type: in vivo, Zea mays; conditions: Test C, preemergence, 125 g ai/ha; 0 to 100 scale (0 no effect, 100 complete control)
# How it was run: as §1
# green foxtail [4] = test: Test C preemergence; type: in vivo, Setaria viridis; conditions: 0 to 100 scale (0 no effect, 100 complete control)
# How it was run: as §1
# kochia [5] = test: Test C preemergence; type: in vivo, Bassia scoparia; conditions: 0 to 100 scale (0 no effect, 100 complete control)
# How it was run: as §1
# oat, wild [6] = test: Test C preemergence; type: in vivo, Avena fatua; conditions: 0 to 100 scale (0 no effect, 100 complete control)
# How it was run: as §1
# pigweed, palmer [7] = test: Test C preemergence; type: in vivo, Amaranthus palmeri; conditions: 0 to 100 scale (0 no effect, 100 complete control)
# How it was run: as §1
# ragweed [8] = test: Test C preemergence; type: in vivo, Ambrosia artemisiifolia; conditions: 0 to 100 scale (0 no effect, 100 complete control)
# How it was run: as §1
# ryegrass, Italian [9] = test: Test C preemergence; type: in vivo, Lolium multiflorum; conditions: 0 to 100 scale (0 no effect, 100 complete control)
# How it was run: as §1
# soybean [10] = test: Test C preemergence; type: in vivo, Glycine max; conditions: 0 to 100 scale (0 no effect, 100 complete control)
# How it was run: as §1
# wheat [11] = test: Test C preemergence; type: in vivo, Triticum aestivum; conditions: 0 to 100 scale (0 no effect, 100 complete control)
# How it was run: as §1
# barnyardgrass [12] = test: Test C postemergence; type: in vivo, Echinochloa crusgalli; conditions: 10 days
# How it was run: as §1
# blackgrass [13] = test: Test C postemergence; type: in vivo, Alopecurus myosuroides; conditions: 10 days
# How it was run: as §1
# corn [14] = test: Test C postemergence; type: in vivo, Zea mays; conditions: 10 days
# How it was run: as §1
# green foxtail [15] = test: Test C postemergence; type: in vivo, Setaria viridis; conditions: 10 days
# How it was run: as §1
# kochia [16] = test: Test C postemergence; type: in vivo, Bassia scoparia; conditions: 10 days
# How it was run: as §1
# oat, wild [17] = test: Test C postemergence; type: in vivo, Avena fatua; conditions: 10 days
# How it was run: as §1
# pigweed, palmer [18] = test: Test C postemergence; type: in vivo, Amaranthus palmeri; conditions: 10 days
# How it was run: as §1
# ragweed [19] = test: Test C postemergence; type: in vivo, Ambrosia artemisiifolia; conditions: 10 days
# How it was run: as §1
# ryegrass, Italian [20] = test: Test C postemergence; type: in vivo, Lolium multiflorum; conditions: 10 days
# How it was run: as §1
# soybean [21] = test: Test C postemergence; type: in vivo, Glycine max; conditions: 10 days
# How it was run: as §1
# wheat [22] = test: Test C postemergence; type: in vivo, Triticum aestivum; conditions: 10 days
# How it was run: as §1
# galium = test: Test C postemergence; type: in vivo, Galium aparine; conditions: 10 days
# How it was run: as §1
# horseweed = test: Test C postemergence; type: in vivo, Erigeron canadensis; conditions: 10 days
# How it was run: as §1
# barnyardgrass [23] = test: Test D flooded paddy test; type: in vivo, Echinochloa crus-galli; conditions: 250 g ai/ha, applied to paddy water, visual rating after 13 to 14 days, scale 0 to 100 (0 no effect, 100 complete control)
# How it was run: (§2)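 Visual ratings from 0, meaning no effect, to 100, meaning complete control, were assigned against untreated controls 13 to 14 days after compounds were added to the floodwater of pots kept 3 cm deep, with plants at the 2-leaf stage.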
# ducksalad = test: Test D flooded paddy test; type: in vivo, Heteranthera limosa; conditions: 250 g ai/ha, applied to paddy water, visual rating after 13 to 14 days, scale 0 to 100 (0 no effect, 100 complete control)
# How it was run: as §2
# rice = test: Test D flooded paddy test; type: in vivo, Oryza sativa; conditions: 250 g ai/ha, applied to paddy water, visual rating after 13 to 14 days, scale 0 to 100 (0 no effect, 100 complete control)
# How it was run: as §2
# sedge, umbrella = test: Test D flooded paddy test; type: in vivo, Cyperus difformis; conditions: 250 g ai/ha, applied to paddy water, visual rating after 13 to 14 days, scale 0 to 100 (0 no effect, 100 complete control)
# How it was run: as §2
# [24] = Preemergence, 500 g ai/ha, visual rating after 10 days
# [25] = Test C, preemergence, 125 g ai/ha
# [26] = 125 g ai/ha, postemergence, 0 to 100 scale, 0 no effect, 100 complete control
# [27] = Postemergence, 500 g ai/ha, visual 0 to 100 scale (0 no effect, 100 complete control)
structure (smiles),measurement,setting,value
Cc1ccc(-n2cnc(C3(C(F)(F)F)CCC3)n2)cc1C(=O)N1C[C@H](C)Oc2c(Cl)cccc21 [Compound 168],Barnyardgrass plant response rating,"barnyardgrass [1]; 125 g ai/ha, preemergence",50
same,"Plant response rating, Barnyardgrass",barnyardgrass [1]; [24],70
same,"Plant response rating, Blackgrass",blackgrass [2]; [24],60
same,Blackgrass plant response rating,blackgrass [2]; [25],20
same,Corn plant response rating,corn [3],0
same,"Plant response rating, Foxtail, Green",green foxtail [4]; [24],100
same,"Foxtail, Green plant response rating",green foxtail [4]; [25],50
same,"Plant response rating, Kochia",kochia [5]; [24],50
same,Kochia plant response rating,kochia [5]; [25],0
same,"Plant response rating, Oat, Wild","oat, wild [6]; [24]",20
same,"Oat, Wild plant response rating","oat, wild [6]; [25]",0
same,"Plant response rating, Pigweed, Palmer","pigweed, palmer [7]; [24]",100
same,"Pigweed, Palmer plant response rating","pigweed, palmer [7]; [25]",100
same,"Plant response rating, Ragweed",ragweed [8]; [24],60
same,Ragweed plant response rating,ragweed [8]; [25],30
same,"Plant response rating, Ryegrass, Italian","ryegrass, Italian [9]; [24]",90
same,"Ryegrass, Italian plant response rating","ryegrass, Italian [9]; [25]",70
same,"Plant response rating, Soybean",soybean [10]; [24],60
same,Soybean plant response rating,soybean [10]; [25],60
same,"Plant response rating, Wheat",wheat [11]; [24],20
same,Wheat plant response rating,wheat [11]; [25],0
same,"Plant response rating, Barnyardgrass",barnyardgrass [12]; [26],10
same,"Plant response rating, Barnyardgrass",barnyardgrass [12]; [27],30
same,"Plant response rating, Blackgrass",blackgrass [13]; [26],0
same,"Plant response rating, Blackgrass",blackgrass [13]; [27],0
same,"Plant response rating, Corn",corn [14]; [26],10
same,"Plant response rating, Corn",corn [14]; [27],10
same,"Plant response rating, Foxtail, Green",green foxtail [15]; [26],20
same,"Plant response rating, Foxtail, Green",green foxtail [15]; [27],30
same,"Plant response rating, Kochia",kochia [16]; [26],80
same,"Plant response rating, Kochia",kochia [16]; [27],80
same,"Plant response rating, Oat, Wild","oat, wild [17]; [26]",0
same,"Plant response rating, Oat, Wild","oat, wild [17]; [27]",0
same,"Plant response rating, Pigweed, Palmer","pigweed, palmer [18]; [26]",70
same,"Plant response rating, Pigweed, Palmer","pigweed, palmer [18]; [27]",90
same,"Plant response rating, Ragweed",ragweed [19]; [26],60
same,"Plant response rating, Ragweed",ragweed [19]; [27],70
same,"Plant response rating, Ryegrass, Italian","ryegrass, Italian [20]; [26]",20
same,"Plant response rating, Ryegrass, Italian","ryegrass, Italian [20]; [27]",40
same,"Plant response rating, Soybean",soybean [21]; [26],100
same,"Plant response rating, Soybean",soybean [21]; [27],100
same,"Plant response rating, Wheat",wheat [22]; [26],10
same,"Plant response rating, Wheat",wheat [22]; [27],20
same,"Plant response rating, Galium",galium; [26],80
same,"Plant response rating, Galium",galium; [27],90
same,"Plant response rating, Horseweed",horseweed; [26],0
same,"Plant response rating, Horseweed",horseweed; [27],10
same,"Plant response rating, Barnyardgrass (Flood)",barnyardgrass [23],0
same,"Plant response rating, Ducksalad (Flood)",ducksalad,0
same,"Plant response rating, Rice (Flood)",rice,0
same,"Plant response rating, Sedge, Umbrella (Flood)","sedge, umbrella",0
